The values below are quoted from earlier work in patent US20140186456A1, “Tripartite Bioactive Composition Providing Anti-Oxidant and Anti-Inflammatory Effects with Immune System and Stem Cell Production Enhancement” (priority 2011, published 2014).

The data set has as its system organisms and animal species.

With `Oc1ccc(/C=C/c2cc(O)cc(O)c2)cc1` [resveratrol, 3,5,4′-trihydroxy-trans-stilbene], the increase of lifespan is 20-40%.
